Assay [1] concerns the target protein-protein interaction between Kras and SOS1 (biotin-tagged human Kras loaded with GDP, His-tagged human SOS1) (Homo sapiens (Human), UniProt P01116, G12D). In words: Protein-protein interaction inhibition between Kras and SOS1 (KrasG12D-SOS PPI) using AlphaScreen.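 Note: kras produced in E. coli, Ni-coupled donor beads and streptavidin acceptor beads, excitation 680 nm with emission detected at 520–620 nm via singlet oxygen transfer.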 The assay is classed as biochemical. The conditions noted are these: AlphaScreen; biotin-tagged human Kras loaded with GDP, His-tagged human SOS1; read-out: KRAS G12D-SOS PPI IC50. (In general: Alpha assays give light when donor and acceptor beads are brought close together.)

Assay [2] relates to Human pancreatic cancer cell line AsPC-1 (G12D mutation Kras). Kind of assay: AsPC-1 cell growth inhibition (AsPC-1 CGI). The assay is classed as cell-based. The conditions noted are these: read-out: AsPC-1 cell growth inhibition, 50% growth inhibitory concentration (IC50 value); 96 hours, CellTiter-Glo, values classified in ranges. On the technique in general: ATP-based viability assays read luminescence as a measure of living cells.
Procedure: Test compounds were serially dilated with dimethyl sulfoxide, and 200 nL was then dispensed to a U-bottom 96-well plate using Labcyte Echo. […] The cell suspension was dispensed to a. plate containing a test compound at 100 μL per well and incubated at 37° C. in a 5% carbon dioxide gas incubator. 96 hours later, 80 μL of CellTiter-Glo (Promega) was added to each well and fluorescence was measured.

Numbered stars: 1 amine (or outer) side, 2 acyl side, 3 side chain; on linkers, the order of the positions; unused ones are H or OH. Bridge positions count the residues as written; N and C are the ends. Square brackets hold non-standard residues; d marks the D form. Peptide text beside a SMILES is read from it. * marks the point of attachment. hPhe(3-Cl-4-CF3) = N[C@@H](CCc1ccc(C(F)(F)F)c(Cl)c1)C(=O)O; X15 = O=C([C@H](CCc1cc(Cl)c(Cl)c(Cl)c1)N[*:1])[*:2]; X16 = CS(=O)(=O)c1ccc(CC[C@H](N[*:1])C(=O)[*:2])cc1; X18 = O=C([C@H](CCc1ccc(C(F)(F)F)cn1)N[*:1])[*:2]; X22 = O=C([C@H](CCc1ccc(C(F)F)nc1)N[*:1])[*:2]; 3Oxa8azabicyclo(3.2.1)octane = C1CC2COCC1N2*; NMePhe(4-Me) = CN[C@@H](Cc1ccc(C)cc1)C(=O)O; X3 = O=C(CN(C1CC2(C1)CC(F)(F)C2)[*:1])[*:2]; NMedβ3hAla = C[C@H](CC(=O)[*:2])N(C)[*:1]; NMeAla(cPent) = CN[C@@H](CC1CCCC1)C(=O)O; NMeGly(cPent) = CN[C@H](C(=O)O)C1CCCC1; X28 = O=C(CN(C1CC2(COC2)C1)[*:1])[*:2]; NMe3Pal = CN[C@@H](Cc1cccnc1)C(=O)O; NMeCha = CN[C@@H](CC1CCCCC1)C(=O)O; Hyp = O=C(O)[C@@H]1C[C@@H](O)CN1; NMeChg = CN[C@H](C(=O)O)C1CCCCC1; NMeI = CC[C@H](C)[C@H](NC)C(=O)O; NMeD = CN[C@@H](CC(=O)O)C(=O)O; NMeL = CN[C@@H](CC(C)C)C(=O)O; NMeNva = CCC[C@H](NC)C(=O)O; NMeV = CN[C@H](C(=O)O)C(C)C; NMeS = CN[C@@H](CO)C(=O)O; Morpholide = C1CN(*)CCO1; NMeA = CN[C@@H](C)C(=O)O; Piperidide = C1CCN(*)CC1; Pyrrolidide = C1CCN(*)C1; Ac5c = NC1(C(=O)O)CCCC1; Aze = O=C(O)[C@@H]1CCN1; Sar = CNCC(=O)O

`CC[C@H](C)[C@@H]1NC(=O)[C@H](CO)N(C)C(=O)C[C@@H](C(=O)N2CCCCC2)N(C)C(=O)[C@H](C(C)C)N(C)C(=O)C2(CCCC2)NC(=O)[C@@H]2CCCN2C(=O)[C@H](CCc2ccc(C(F)(F)F)c(Cl)c2)NC(=O)CN(C)C(=O)[C@H](CC2CCCCC2)N(C)C(=O)[C@@H]2CCN2C(=O)[C@H](C)N(C)C1=O` [Compound 1837] ([NMeS]I[NMeA][Aze][NMeCha][Sar][hPhe(3-Cl-4-CF3)]P[Ac5c][NMeV][NMeD]-Piperidide; lactam N-11): the IC50 in assay [1] is 2 nM; in assay [2] it was over 500 nM.

Regarding `CC[C@H](C)[C@@H]1NC(=O)[C@H](CC(C)C)N(C)C(=O)C[C@@H](C(=O)N(C)C)N(C)C(=O)[C@H]([C@@H](C)CC)N(C)C(=O)C2(CCCC2)NC(=O)[C@@H]2CCCN2C(=O)[C@H](CCc2ccc(C(F)(F)F)c(Cl)c2)NC(=O)CN(C)C(=O)[C@H](Cc2ccc(C)cc2)N(C)C(=O)[C@@H]2CCN2C(=O)[C@H](C)N(C)C1=O` [Compound 1842] ([NMeL]I[NMeA][Aze][NMePhe(4-Me)][Sar][hPhe(3-Cl-4-CF3)]P[Ac5c][NMeI][NMeD]-NMe2; lactam N-11), the results for the IC50 in assay [1] and in assay [2] were 0.66 nM and at most 20 nM, respectively.

In the case of `CC[C@H](C)[C@@H]1NC(=O)[C@H](CC(C)C)N(C)C(=O)C[C@@H](C(=O)N2CCCC2)N(C)C(=O)[C@H]([C@@H](C)CC)N(C)C(=O)C2(CCCC2)NC(=O)[C@@H]2CCCN2C(=O)[C@H](CCc2ccc(C(F)(F)F)c(Cl)c2)NC(=O)CN(C)C(=O)[C@H](CC2CCCCC2)N(C)C(=O)[C@@H]2CCN2C(=O)[C@H](C)N(C)C1=O` [Compound 1843] ([NMeL]I[NMeA][Aze][NMeCha][Sar][hPhe(3-Cl-4-CF3)]P[Ac5c][NMeI][NMeD]-Pyrrolidide; lactam N-11), the values for the IC50 in assay [1] and in assay [2] were 0.84 nM and at most 20 nM, respectively.

In the case of `CC[C@H](C)[C@@H]1NC(=O)[C@H](CC(C)C)N(C)C(=O)C[C@@H](C)N(C)C(=O)[C@H](C2CCCCC2)N(C)C(=O)C2(CCCC2)NC(=O)[C@H](Cc2cccnc2)N(C)C(=O)[C@H](CCc2ccc(C(F)(F)F)c(Cl)c2)NC(=O)CN(C)C(=O)[C@H](CC2CCCCC2)N(C)C(=O)CN(C)C(=O)CN(C)C1=O` [Compound 1849] (cyclo([Ac5c][NMeChg][NMedβ3hAla][NMeL]I[Sar][Sar][NMeCha][Sar][hPhe(3-Cl-4-CF3)][NMe3Pal])), the IC50 in assay [1] was 230 nM; in assay [2], over 500 nM.

For `CCC[C@H]1C(=O)N[C@@H]([C@@H](C)CC)C(=O)N(C)CC(=O)N(C)CC(=O)N(C)[C@@H](CC2CCCC2)C(=O)N(C)CC(=O)N[C@@H](CCc2ccc(C(F)(F)F)c(Cl)c2)C(=O)N(C)[C@@H](Cc2cccnc2)C(=O)NC2(CCCC2)C(=O)N(C)[C@@H](C2CCCCC2)C(=O)N(C)[C@H](C(=O)N2CCOCC2)CC(=O)N1C` [Compound 1937] ([NMeNva]I[Sar][Sar][NMeAla(cPent)][Sar][hPhe(3-Cl-4-CF3)][NMe3Pal][Ac5c][NMeChg][NMeD]-Morpholide; lactam N-11), the IC50 in assay [1] was 3.1 nM; in assay [2], over 500 nM.

In the case of `CCC[C@H]1C(=O)N[C@@H]([C@@H](C)CC)C(=O)N(C)CC(=O)N(C)CC(=O)N(C)[C@@H](CC2CCCC2)C(=O)N(C)CC(=O)N[C@@H](CCc2ccc(C(F)(F)F)c(Cl)c2)C(=O)N(C)[C@@H](Cc2cccnc2)C(=O)NC2(CCCC2)C(=O)N(C)[C@@H](C2CCCCC2)C(=O)N(C)[C@H](C(=O)N2CCCC2)CC(=O)N1C` [Compound 1946] ([NMeNva]I[Sar][Sar][NMeAla(cPent)][Sar][hPhe(3-Cl-4-CF3)][NMe3Pal][Ac5c][NMeChg][NMeD]-Pyrrolidide; lactam N-11), the IC50 in assay [1] is 1.5 nM; in assay [2], over 500 nM.

For `CCO[C@@H]1C[C@H]2C(=O)NC3(CCCC3)C(=O)N(C)[C@@H](C3CCCCC3)C(=O)N(C)[C@H](C(=O)N3C4CCC3COC4)CC(=O)N(C)[C@@H](CC(C)C)C(=O)N[C@@H]([C@@H](C)CC)C(=O)N(C)CC(=O)N(C)CC(=O)N(C)[C@@H](CC3CCCCC3)C(=O)N(C)CC(=O)N[C@@H](CCc3ccc(C(F)(F)F)c(Cl)c3)C(=O)N2C1` [Compound 1977] ([NMeL]I[Sar][Sar][NMeCha][Sar][hPhe(3-Cl-4-CF3)][Hyp](Et)[Ac5c][NMeChg][NMeD]-{3Oxa8azabicyclo(3.2.1)octane}; lactam N-11), the IC50 was 0.47 nM in assay [1] and at most 20 nM in assay [2].

`CCO[C@@H]1C[C@H]2C(=O)NC3(CCCC3)C(=O)N(C)[C@@H](C3CCCCC3)C(=O)N(C)[C@H](C(=O)N3CCOCC3)CC(=O)N(C)[C@@H](CC(C)C)C(=O)N[C@@H]([C@@H](C)CC)C(=O)N(C)CC(=O)N(C)CC(=O)N(C)[C@@H](CC3CCCCC3)C(=O)N(C)CC(=O)N[C@@H](CCc3ccc(C(F)(F)F)c(Cl)c3)C(=O)N2C1` [Compound 1990] ([NMeL]I[Sar][Sar][NMeCha][Sar][hPhe(3-Cl-4-CF3)][Hyp](Et)[Ac5c][NMeChg][NMeD]-Morpholide; lactam N-11): the values for the IC50 in assay [1] and in assay [2] were 0.43 nM and at most 20 nM, respectively.

In the case of `CC[C@H](C)[C@@H]1NC(=O)[C@H](CC(C)C)N(C)C(=O)C[C@@H](C(=O)N2CCCCC2)N(C)C(=O)[C@H](C2CCCCC2)N(C)C(=O)C2(CCCC2)NC(=O)CN(C2CC3(COC3)C2)C(=O)[C@H](CCc2ccc(C(F)(F)F)c(Cl)c2)NC(=O)CN(C)C(=O)[C@H](CC2CCCCC2)N(C)C(=O)CN(C)C(=O)CN(C)C1=O` [Compound 2030] ([NMeL]I[Sar][Sar][NMeCha][Sar][hPhe(3-Cl-4-CF3)][X28][Ac5c][NMeChg][NMeD]-Piperidide; lactam N-11), the IC50 in assay [1] was 2.3 nM; in assay [2] it was over 500 nM.

With `CC[C@H](C)[C@@H]1NC(=O)[C@H](CC(C)C)N(C)C(=O)C[C@@H](C(=O)N2CCCCC2)N(C)C(=O)[C@H](C2CCCCC2)N(C)C(=O)C2(CCCC2)NC(=O)CN(C2CC3(C2)CC(F)(F)C3)C(=O)[C@H](CCc2ccc(C(F)(F)F)c(Cl)c2)NC(=O)CN(C)C(=O)[C@H](CC2CCCCC2)N(C)C(=O)CN(C)C(=O)CN(C)C1=O` [Compound 2035, (11S,17S,26S,29S,33S,36S)-11-[2-[3-chloro-4-(trifluoromethyl)phenyl]ethyl]-36-cyclohexyl-17-(cyclohexylmethyl)-9-(2,2-difluorospiro[3.3]heptan-6-yl)-29-isobutyl-15,18,21,24,30,34,37-heptamethyl-26-[(1S)-1-methylpropyl]-33-(piperidine,-1-carbonyl)-6,9,12,15,18,21,24,27,30,34,37-undecazaspiro[4.33]octatriacontane-7,10,13,16,19,22,25,28,31,35,38-undecone] ([NMeL]I[Sar][Sar][NMeCha][Sar][hPhe(3-Cl-4-CF3)][X3][Ac5c][NMeChg][NMeD]-Piperidide; lactam N-11), the IC50 in assay [1] was 24 nM; in assay [2], over 500 nM.

Turning to `CC[C@H](C)[C@@H]1NC(=O)[C@H](CC(C)C)N(C)C(=O)C[C@@H](C(=O)N2CCCCC2)N(C)C(=O)[C@H](C2CCCCC2)N(C)C(=O)C2(CCCC2)NC(=O)[C@@H]2CCCN2C(=O)[C@H](CCc2ccc(S(C)(=O)=O)cc2)NC(=O)CN(C)C(=O)[C@H](CC2CCCCC2)N(C)C(=O)CN(C)C(=O)CN(C)C1=O` [Compound 2058, (3S,9S,18S,21S,25S,28S,34S)-28-cyclohexyl-9-(cyclohexylmethyl)-21-isobutyl-7,10,13,16,22,26,29-heptamethyl-18-[(1S)-1-methylpropyl]-3-[2-(4-methylsulfonylphenyl)ethyl]-25-(piperidine-1-carbonyl)spiro[1,4,7,10,13,16,19,22,26,29,32-undecazabicyclo[32.3.0]heptatriacontane-31,1′-cyclopentane]-2,5,8,11,14,17,20,23,27,30,33-undecone] ([NMeL]I[Sar][Sar][NMeCha][Sar][X16]P[Ac5c][NMeChg][NMeD]-Piperidide; lactam N-11), the IC50 in assay [1] is 380 nM; in assay [2], over 500 nM.

`CC[C@H](C)[C@@H]1NC(=O)[C@H](CC(C)C)N(C)C(=O)C[C@@H](C(=O)N2CCCCC2)N(C)C(=O)[C@H](C2CCCC2)N(C)C(=O)C2(CCCC2)NC(=O)[C@@H]2CCCN2C(=O)[C@H](CCc2ccc(C(F)F)nc2)NC(=O)CN(C)C(=O)[C@H](CC2CCCCC2)N(C)C(=O)[C@@H]2CCN2C(=O)[C@H](C)N(C)C1=O` [Compound 2060] ([NMeL]I[NMeA][Aze][NMeCha][Sar][X22]P[Ac5c][NMeGly(cPent)][NMeD]-Piperidide; lactam N-11 (inferred); C-terminus assumed): the figures for the IC50 in assay [1] and in assay [2] were 110 nM and over 500 nM, respectively.

Regarding `CC[C@H](C)[C@@H]1NC(=O)[C@H](C)N(C)C(=O)C[C@@H](C(=O)N2CCCCC2)N(C)C(=O)[C@H](C(C)C)N(C)C(=O)C2(CCCC2)NC(=O)[C@@H]2CCCN2C(=O)[C@H](CCc2cc(Cl)c(Cl)c(Cl)c2)NC(=O)CN(C)C(=O)[C@H](CC2CCCCC2)N(C)C(=O)CN(C)C(=O)CN(C)C1=O` [Compound 2068, (3S,9S,18S,21S,25S,28S,34S)-9-(cyclohexylmethyl)-28-isopropyl-7,10,13,16,21,22,26,29-octamethyl-18-[(1S)-1-methylpropyl]-25-(piperidine-1-carbonyl)-3-[2-(3,4,5-trichlorophenyl)ethyl]spiro[1,4,7,10,13,16,19,22,26,29,32-undecazabicyclo[32.3.0]heptatriacontane-31,1′-cylopentane]-2,5,8,11,14,17,20,23,27,30,33-undecone] ([NMeA]I[Sar][Sar][NMeCha][Sar][X15]P[Ac5c][NMeV][NMeD]-Piperidide; lactam N-11), the IC50 in assay [1] is 1.7 nM; in assay [2] it was over 500 nM.

Take `CC[C@H](C)[C@@H]1NC(=O)[C@H](CC(C)C)N(C)C(=O)C[C@@H](C(=O)N2CCCCC2)N(C)C(=O)[C@H](C2CCCC2)N(C)C(=O)C2(CCCC2)NC(=O)[C@@H]2CCCN2C(=O)[C@H](CCc2ccc(C(F)(F)F)cn2)NC(=O)CN(C)C(=O)[C@H](CC2CCCCC2)N(C)C(=O)[C@@H]2CCN2C(=O)[C@H](C)N(C)C1=O` [Compound 2069] ([NMeL]I[NMeA][Aze][NMeCha][Sar][X18]P[Ac5c][NMeGly(cPent)][NMeD]-Piperidide; lactam N-11 (inferred); C-terminus assumed): the IC50 in assay [1] is 78 nM; in assay [2], over 500 nM.
